# Tests used:
# Pim3 kinase = Pim3 kinase (Homo sapiens, UniProt Q86V86); assay: KinaseGlo Pim3 ATP depletion assay; assay type: biochemical; settings: Table 4, 40 μM ATP, 100 μM BAD peptide
# Description: (§1) The activity of PIM3 is measured using a luciferase-luciferin based ATP detection reagent to quantify ATP depletion resulting from kinase-catalyzed phosphoryl transfer to a peptide substrate. Compounds to be tested are dissolved in 100% DMSO and directly distributed into white 384-well plates at 0.5 μl per well. […] After 15 minutes, 10 μl of 80 μM ATP in assay buffer is added. Final assay concentrations are 5 nM PIM1, 40 μM ATP, 100 μM BAD peptide and 2.5% DMSO. The reaction is performed until approximately 50% of the ATP is depleted, then stopped by the addition of 20 μl KinaseGlo Plus (Promega Corporation) solution. The stopped reaction is incubated for 10 minutes and the remaining ATP detected via luminescence on the Victor2 (Perkin Elmer).
# [1] = system: KMS11 (human myeloma cell line); assay: Cell proliferation assay (CellTiter-Glo) in KMS11 cells; assay type: cell-based; settings: KMS-11, 72 h, Table 4, 3 days, read-out: KMS11-luc EC50
# Summary of the method: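 KMS11 cells at 2000 per well in IMDM/10% FBS were exposed to compound for 3 days. Viability was read by CellTiter-Glo luminescence.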
# Pim1 kinase = Pim1 kinase (Homo sapiens, UniProt P11309); assay: KinaseGlo Pim1 ATP depletion assay; assay type: biochemical; settings: Table 4, 2.5 nM PIM1, 20 μM ATP, 40 μM BAD peptide
# Sequence of Pim1 kinase (P11309 whole entry): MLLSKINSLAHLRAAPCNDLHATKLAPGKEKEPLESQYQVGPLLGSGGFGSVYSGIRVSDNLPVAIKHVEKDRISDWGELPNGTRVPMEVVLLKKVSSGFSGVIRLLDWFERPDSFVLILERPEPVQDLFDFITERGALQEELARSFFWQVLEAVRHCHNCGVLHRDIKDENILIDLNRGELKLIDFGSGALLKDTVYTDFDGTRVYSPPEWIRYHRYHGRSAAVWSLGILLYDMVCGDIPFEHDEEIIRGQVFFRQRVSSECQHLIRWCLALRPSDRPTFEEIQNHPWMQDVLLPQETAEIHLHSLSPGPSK
# Description: as §1, with “PIM1” for “PIM3”, “40” for “80”, “Final assay concentrations are 5 nM PIM1, 40 μM ATP, 100 μM BAD peptide and 2.5% DMSO.” left out, “with” for “by”
# Pim2 kinase = Pim2 kinase (Homo sapiens, UniProt Q9P1W9); assay: KinaseGlo Pim2 ATP depletion assay; assay type: biochemical; settings: Table 4, 5 nM PIM2, 4 μM ATP, 10 μM BAD peptide
# Sequence of Pim2 kinase (Q9P1W9 whole entry): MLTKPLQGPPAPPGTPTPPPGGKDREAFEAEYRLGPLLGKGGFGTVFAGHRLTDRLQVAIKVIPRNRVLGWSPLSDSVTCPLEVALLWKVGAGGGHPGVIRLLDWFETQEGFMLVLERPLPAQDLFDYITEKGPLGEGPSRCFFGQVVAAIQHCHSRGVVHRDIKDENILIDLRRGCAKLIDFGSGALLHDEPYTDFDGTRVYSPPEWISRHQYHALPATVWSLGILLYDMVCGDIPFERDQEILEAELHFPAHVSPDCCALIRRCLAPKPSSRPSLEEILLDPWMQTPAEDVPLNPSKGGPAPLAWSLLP
IC50 (Pim3 kinase) [nM],EC50 [1] [nM],IC50 (Pim1 kinase) [nM],IC50 (Pim2 kinase) [nM],Structure (SMILES)
8.7,6690,8.8,120,"Cc1c(-c2ccc(N)c(C(=O)Nc3cnccc3[C@H]3C[C@@H](O)[C@](C)(O)[C@@H](C)C3)n2)cnn1C [Example 143, 3-amino-N-(4-((1R,3R,4R,5S)-3,4-dihydroxy-4,5-dimethylcyclohexyl)pyridin-3-yl)-6-(1,5-dimethyl-1H-pyrazol-4-yl)picolinamide]"
2.3,4220,0.7,7.7,"C[C@H]1C[C@@H](c2ccncc2NC(=O)c2nc(-c3ncccc3Cl)ccc2N)C[C@@H](O)[C@]1(C)O [Example 144, 5-amino-3′-chloro-N-(4-((1R,3R,4R,5S)-3,4-dihydroxy-4,5-dimethylcyclohexyl)pyridin-3-yl)-2,2′-bipyridine-6-carboxamide]"

# — patent US20120225061A1, “TETRASUBSTITUTED CYCLOHEXYL COMPOUNDS AS KINASE INHIBITORS” (priority 2011, published 2012)
